Legend:
B-16 melanoma cells [1] = test: Effect of a biomodulator on the biodistribution of a non-specific agent (I-125 BSA); format: in vivo, mice; details: 2 hours (FIG. 9) and 4 hours (FIG. 10)
Excerpt: The results of biodistribution studies of mice injected with 6×10^5 B-16 melanoma cells 7 days prior to the injection of Tc-99m labeled pokeweed (Tc-99m PWM) and I-125 bovine serum albumin (I-125 BSA) or Tc-99m labeled human serum albumin (Tc-99m HSA) and I-125 bovine serum albumin (I-125 BSA) .

[2] = tested on: xenografts of human teratocarcinoma tumors; test: Imaging tumors with 99mTc-labeled TNF-α and biomodulators; format: in vivo, Balb/c mice; details: pretreatment 15 hours earlier
Experimental: Balb/c mice bearing xenografts of human teratocarcinoma tumors induced by subcutaneous injections of live tumor cells 8 days previously were injected with 10 μg of Ukrain, pokeweed mitogen or 10K units of interferon. 15 hours later, they were injected i.v. with 10 μCi of ^99mTc-labeled TNF-α labeled using the ascorbic acid reduction method of M. L. Thakur. M. L. Thakur et al., “Tc-99m Labeled Monoclonal Antibodies: Evaluation of Reducing Agents,” Internat. J. Nucl. Med. Biol. 18, 227-233 (1991). M. L. Thakur et al., “Tc-99m Labeled Monoclonal Antibodies for Immunoscintigraphy: Simplified Preparation and Evaluation,” J. Immunol. Methods 137, 217-225 (1991). Mice were imaged at 1.5, 4 and 24 hours post injection of the ^99m-labeled TNF-α and sacrificed for tissue distribution studies.

B-16 melanoma cells [3] = test: Tissue localization of otherwise non-specific imaging agent (Tc-99m HSA) after pokeweed mitogen; format: in vivo, mouse; details: 10 μg pokeweed mitogen four hours before 99mTc-HSA
Experimental: A mouse ([…]) was injected with B-16 melanoma cells in accordance with Example 1. 7 days later, 10 μg of pokeweed mitogen was injected into the mouse. Four hours later ^99mTc-human serum albumin (HSA) was injected. The resultant posterior gamma camera image is obtained of the tumor grown in the mouse. Comparison with the control image.

canine glioma tumors = test: NMR imaging of tumor using pokeweed mitogen; effect on T1; format: in vivo, nude rats
Experimental: Three nude rats were implanted with canine glioma tumors in their left flank. […] NMR imaging was performed as above at 4 hours post injection.

[4] = 4 and 24 hours post injection of TNF-α
[5] = 1.5 hours post injection of TNF-α
[6] = treatment with unlabeled PWM, FIG. 6

Substance	distribution of I-125 BSA depending on co-injected agent (Tc-99m PWM or Tc-99m HSA) (B-16 melanoma cells [1])	tumor to muscle ratios of radioisotope uptake (99mTc-labeled TNF-α) compared to mice not receiving biomodulators or interferon [2, 4]	tumor to muscle ratios of radioisotope uptake (99mTc-labeled TNF-α) compared to mice not receiving biomodulators or interferon [2, 5]	gamma camera image of tumor with 99mTc-HSA versus control image without pokeweed mitogen (B-16 melanoma cells [3])	Visualization of the tumors (NMR imaging) (canine glioma tumors; 4 hours post injection, 7 days post-implantation)	effect on T1 of the treated tissue image (canine glioma tumors; NMR image, 4 hours post injection)	T1 measured on the tumor (canine glioma tumors; [6])	T1 of normal muscle tissue (canine glioma tumors; [6])
I-125 BSA: I-125 bovine serum albumin, non-specific agent	significant differences	–	–	–	–	–	–	–
interferon	–	not at 4 and 24 hours	enhanced	–	–	–	–	–
pokeweed mitogen	–	not at 4 and 24 hours	enhanced	significant image enhancement	observed as bright areas	lowers T1	enhanced tenfold	remained at baseline levels

From patent US6375927B1, “Methods of radiotherapy using biomodulators” (priority 1991, dated 2002)
